{"source": "paper PMC5218480", "about": "(PLoS ONE, 2017)", "system": "MV-4-11 cells", "test": "Gene expression microarray analysis (Affymetrix PrimeView) and GSEA", "type": "cell-based, human", "design": "RFU PODN (11730768_x_at) / Fold change /veh PODN (11730768_x_at) / RFU LINC00158 (11744669_a_at) / Fold change /veh LINC00158 (11744669_a_at) / RFU DUSP10 (11751237_a_at) / Fold change /veh DUSP10 (11751237_a_at) / RFU ID3 (11757404_x_at) / Fold change /veh ID3 (11757404_x_at) / RFU PLEKHG5 (11737974_s_at) / Fold change /veh PLEKHG5 (11737974_s_at) / RFU LRRC4B (11730491_at) / Fold change /veh LRRC4B (11730491_at) / RFU GIMAP4 (11747438_a_at) / Fold change /veh GIMAP4 (11747438_a_at) / RFU KRT8 (11758183_x_at) / Fold change /veh KRT8 (11758183_x_at) / RFU CNN1 (11734310_a_at) / Fold change /veh CNN1 (11734310_a_at) / RFU VPS37D (11726825_at) / Fold change /veh VPS37D (11726825_at) / RFU C10orf10 (11716522_x_at) / Fold change /veh C10orf10 (11716522_x_at) / RFU KIR2DL2 /// KIR2DL4 /// KIR2DL5A /// KIR2DL5B /// KIR2DS1 /// KIR2DS2 /// KIR2DS3 /// KIR2DS4 /// KIR3DL3 /// KIR3DL3 /// KIR3DS1 (11738374_at) / Fold change /veh KIR2DL2 /// KIR2DL4 /// KIR2DL5A /// KIR2DL5B /// KIR2DS1 /// KIR2DS2 /// KIR2DS3 /// KIR2DS4 /// KIR3DL3 /// KIR3DL3 /// KIR3DS1 (11738374_at) / RFU C1QL1 (11718748_at) / Fold change /veh C1QL1 (11718748_at) / RFU TMPRSS4 (11747572_a_at) / Fold change /veh TMPRSS4 (11747572_a_at) / RFU HAMP (11756126_x_at) / Fold change /veh HAMP (11756126_x_at) / RFU RNFT2 (11725882_a_at) / Fold change /veh RNFT2 (11725882_a_at) / RFU NR4A2 (11747474_a_at) / Fold change /veh NR4A2 (11747474_a_at) / RFU ABCC12 (11746883_a_at) / Fold change /veh ABCC12 (11746883_a_at) / RFU TMEM136 (11760407_x_at) / Fold change /veh TMEM136 (11760407_x_at) / RFU CLDN22 /// WWC2 (11732394_at) / Fold change /veh CLDN22 /// WWC2 (11732394_at) / RFU HLA-DPB1 (11760878_x_at) / Fold change /veh HLA-DPB1 (11760878_x_at) / RFU SPINT1 (11716480_a_at) / Fold change /veh SPINT1 (11716480_a_at) / RFU GAP43 (11754022_s_at) / Fold change /veh GAP43 (11754022_s_at) / RFU A4GNT (11735810_at) / Fold change /veh A4GNT (11735810_at) / RFU PRB3 (11715151_x_at) / Fold change /veh PRB3 (11715151_x_at) / RFU TUBB4B (11761932_at) / Fold change /veh TUBB4B (11761932_at) / RFU CAPN14 (11732068_a_at) / Fold change /veh CAPN14 (11732068_a_at) / RFU TMCC2 (11721928_a_at) / Fold change /veh TMCC2 (11721928_a_at) / RFU IRGQ (11745062_a_at) / Fold change /veh IRGQ (11745062_a_at) / RFU FAM174B (11720279_a_at) / Fold change /veh FAM174B (11720279_a_at) / RFU TMPRSS4 (11748680_a_at) / Fold change /veh TMPRSS4 (11748680_a_at) / RFU FAM212B (11763350_a_at) / Fold change /veh FAM212B (11763350_a_at) / RFU PLEKHG5 (11743358_a_at) / Fold change /veh PLEKHG5 (11743358_a_at) / RFU ZSCAN30 (11745921_a_at) / Fold change /veh ZSCAN30 (11745921_a_at) / RFU CMKLR1 (11741424_a_at) / Fold change /veh CMKLR1 (11741424_a_at) / RFU LOC101060620 /// MAPK8IP1 (11723275_at) / Fold change /veh LOC101060620 /// MAPK8IP1 (11723275_at) / RFU SPTSSB (11747773_x_at) / Fold change /veh SPTSSB (11747773_x_at) / RFU PRSS12 (11739890_at) / Fold change /veh PRSS12 (11739890_at) / RFU BIN1 (11741810_x_at) / Fold change /veh BIN1 (11741810_x_at) / RFU WNT11 (11732464_a_at) / Fold change /veh WNT11 (11732464_a_at) / RFU C10orf10 (11716521_a_at) / Fold change /veh C10orf10 (11716521_a_at) / RFU C5orf56 (11738089_at) / Fold change /veh C5orf56 (11738089_at) / RFU CYB561 (11721691_x_at) / Fold change /veh CYB561 (11721691_x_at) / RFU ANKRD19P (11752326_a_at) / Fold change /veh ANKRD19P (11752326_a_at) / RFU OR2T12 /// OR2T33 /// OR2T8 (11738714_s_at) / Fold change /veh OR2T12 /// OR2T33 /// OR2T8 (11738714_s_at) / RFU VCAN (11748164_a_at) / Fold change /veh VCAN (11748164_a_at) / RFU JSRP1 (11732532_at) / Fold change /veh JSRP1 (11732532_at) / RFU KRTAP10-11 (11738290_x_at) / Fold change /veh KRTAP10-11 (11738290_x_at) / RFU MYO3A (11730013_a_at) / Fold change /veh MYO3A (11730013_a_at) / RFU EBF3 (11725865_a_at) / Fold change /veh EBF3 (11725865_a_at) / RFU CAMK2N1 (11719241_x_at) / Fold change /veh CAMK2N1 (11719241_x_at) / RFU C5orf56 (11738088_a_at) / Fold change /veh C5orf56 (11738088_a_at) / RFU OLFML3 (11715873_a_at) / Fold change /veh OLFML3 (11715873_a_at) / RFU LOC100653217 /// NTM (11731650_a_at) / Fold change /veh LOC100653217 /// NTM (11731650_a_at) / RFU MAPK11 (11762145_a_at) / Fold change /veh MAPK11 (11762145_a_at) / RFU FIZ1 (11724087_x_at) / Fold change /veh FIZ1 (11724087_x_at) / RFU OASL (11726364_x_at) / Fold change /veh OASL (11726364_x_at) / RFU SOX15 (11748057_x_at) / Fold change /veh SOX15 (11748057_x_at) / RFU CD79A (11719716_a_at) / Fold change /veh CD79A (11719716_a_at) / RFU HIST1H1D (11736915_at) / Fold change /veh HIST1H1D (11736915_at) / RFU CASKIN2 (11723855_a_at) / Fold change /veh CASKIN2 (11723855_a_at) / RFU LOC730098 (11760151_x_at) / Fold change /veh LOC730098 (11760151_x_at) / RFU OR4N2 (11742367_at) / Fold change /veh OR4N2 (11742367_at) / RFU PRRT2 (11749266_a_at) / Fold change /veh PRRT2 (11749266_a_at) / RFU SNX32 (11753110_a_at) / Fold change /veh SNX32 (11753110_a_at) / RFU CDHR5 (11726645_a_at) / Fold change /veh CDHR5 (11726645_a_at) / RFU RCAN1 (11760418_a_at) / Fold change /veh RCAN1 (11760418_a_at) / RFU FAM167A (11723789_a_at) / Fold change /veh FAM167A (11723789_a_at) / RFU FAM26E (11764081_at) / Fold change /veh FAM26E (11764081_at) / RFU ISYNA1 (11749810_s_at) / Fold change /veh ISYNA1 (11749810_s_at) / RFU ACY1 (11761880_at) / Fold change /veh ACY1 (11761880_at) / RFU 11764098_at / Fold change /veh 11764098_at / RFU SAMD14 (11745864_x_at) / Fold change /veh SAMD14 (11745864_x_at) / RFU NPB (11741838_a_at) / Fold change /veh NPB (11741838_a_at) / RFU TMPRSS6 (11731388_a_at) / Fold change /veh TMPRSS6 (11731388_a_at) / RFU KRTAP10-2 (11738614_at) / Fold change /veh KRTAP10-2 (11738614_at) / RFU ARHGAP8 /// PRR5-ARHGAP8 (11727945_x_at) / Fold change /veh ARHGAP8 /// PRR5-ARHGAP8 (11727945_x_at) / RFU KRTAP5-7 /// NADSYN1 (11734609_at) / Fold change /veh KRTAP5-7 /// NADSYN1 (11734609_at) / RFU RASL12 (11751679_a_at) / Fold change /veh RASL12 (11751679_a_at) / RFU CDKN2B (11736163_a_at) / Fold change /veh CDKN2B (11736163_a_at) / RFU PRF1 (11729649_at) / Fold change /veh PRF1 (11729649_at) / RFU, ZNF638 /// ZNF638-IT1 / Fold change vs veh, ZNF638 /// ZNF638-IT1 / RFU, PANK3 / Fold change vs veh, PANK3 / RFU, SH3YL1 / Fold change vs veh, SH3YL1 / RFU, ZEB2 / Fold change vs veh, ZEB2 / RFU, NRIP1 / Fold change vs veh, NRIP1 / RFU, PTTG1IP / Fold change vs veh, PTTG1IP / RFU, CAPN2 / Fold change vs veh, CAPN2 / RFU, MED14 / Fold change vs veh, MED14 / RFU, SNORA58 / Fold change vs veh, SNORA58 / RFU, C1orf63 / Fold change vs veh, C1orf63 / RFU, LRRFIP1 / Fold change vs veh, LRRFIP1 / RFU, NDUFAF7 / Fold change vs veh, NDUFAF7 / RFU, SLC12A2 / Fold change vs veh, SLC12A2 / RFU, IBTK / Fold change vs veh, IBTK / RFU, ESF1 / Fold change vs veh, ESF1 / Fold change vs veh, TMEM50B / RFU, TAOK1 / Fold change vs veh, TAOK1 / RFU, ACBD3 / Fold change vs veh, ACBD3 / RFU, TMA16 / Fold change vs veh, TMA16 / RFU, RWDD3 / Fold change vs veh, RWDD3 / RFU, BCAT1 / Fold change vs veh, BCAT1 / RFU, EDEM3 / Fold change vs veh, EDEM3 / RFU, TMEM33 / Fold change vs veh, TMEM33 / RFU, WDR75 / Fold change vs veh, WDR75 / RFU, AHCTF1 / Fold change vs veh, AHCTF1 / RFU, TFRC / Fold change vs veh, TFRC / RFU, ZDHHC17 / Fold change vs veh, ZDHHC17 / RFU, NOM1 / Fold change vs veh, NOM1 / RFU, ARL8B / Fold change vs veh, ARL8B / RFU, ZBTB11 / Fold change vs veh, ZBTB11 / RFU, TAMM41 / Fold change vs veh, TAMM41 / RFU, KIAA1704 /// LOC100996395 / Fold change vs veh, KIAA1704 /// LOC100996395 / RFU, ING1 / Fold change vs veh, ING1 / RFU, TRMT61B / Fold change vs veh, TRMT61B / RFU, FUBP3 / Fold change vs veh, FUBP3 / RFU, TP53 / Fold change vs veh, TP53 / RFU, TNKS2 / Fold change vs veh, TNKS2 / RFU, ZFP14 / Fold change vs veh, ZFP14 / RFU, ACTR2 / Fold change vs veh, ACTR2 / RFU, PPP3R1 / Fold change vs veh, PPP3R1 / RFU, PIK3R1 / Fold change vs veh, PIK3R1 / RFU, HNRNPA1 / Fold change vs veh, HNRNPA1 / RFU, RNF170 / Fold change vs veh, RNF170 / RFU, ZNF28 / Fold change vs veh, ZNF28 / RFU, RNGTT / Fold change vs veh, RNGTT / RFU, OGT / Fold change vs veh, OGT / RFU, BRD1 / Fold change vs veh, BRD1 / RFU, MARS / Fold change vs veh, MARS / RFU, ZNF655 / Fold change vs veh, ZNF655 / RFU, FAHD1 / Fold change vs veh, FAHD1 / RFU, BDP1 / Fold change vs veh, BDP1 / RFU, LRRCC1 / Fold change vs veh, LRRCC1 / RFU, ARID1A / Fold change vs veh, ARID1A / RFU, ZNF146 / Fold change vs veh, ZNF146 / RFU, ZNF330 / Fold change vs veh, ZNF330 / RFU, GPN3 / Fold change vs veh, GPN3 / RFU, C9orf123 / Fold change vs veh, C9orf123 / RFU, N4BP2L2 / Fold change vs veh, N4BP2L2 / RFU, ARFIP1 / Fold change vs veh, ARFIP1 / RFU, FAM179B / Fold change vs veh, FAM179B / RFU, BCL10 / Fold change vs veh, BCL10 / RFU, UHRF1BP1L / Fold change vs veh, UHRF1BP1L / RFU, BET1 / Fold change vs veh, BET1 / RFU, CNOT2 / Fold change vs veh, CNOT2 / RFU, ZNF268 / Fold change vs veh, ZNF268 / Fold change vs veh, ZNF507 / RFU, DGCR2 / Fold change vs veh, DGCR2 / RFU, WDSUB1 / Fold change vs veh, WDSUB1 / Fold change vs veh, HSP90B1 /// MIR3652 / RFU, ADSS / Fold change vs veh, ADSS / RFU, GK / Fold change vs veh, GK / RFU, ZNF148 / Fold change vs veh, ZNF148 / RFU, TAF9 / Fold change vs veh, TAF9 / RFU, SLC1A5 / Fold change vs veh, SLC1A5 / RFU, SLMO2 / Fold change vs veh, SLMO2 / RFU, ABCC4 / Fold change vs veh, ABCC4 / RFU, LOC101060439 /// RAP1B / Fold change vs veh, LOC101060439 /// RAP1B / RFU, RFX7 / Fold change vs veh, RFX7 / RFU, GTPBP10 / Fold change vs veh, GTPBP10 / RFU, CNEP1R1 / Fold change vs veh, CNEP1R1 / RFU, BIVM-ERCC5 /// ERCC5 / Fold change vs veh, BIVM-ERCC5 /// ERCC5 / RFU, ILF3 / Fold change vs veh, ILF3 / RFU 11762660_at / Fold change /veh 11762660_at / RFU VCAN (11757783_s_at) / Fold change /veh VCAN (11757783_s_at) / RFU DDX43 (11728927_at) / Fold change /veh DDX43 (11728927_at) / RFU KRT8 (11758188_x_at) / Fold change /veh KRT8 (11758188_x_at) / RFU NKD1 (11759106_at) / Fold change /veh NKD1 (11759106_at) / RFU SRD5A1 (11742802_a_at) / Fold change /veh SRD5A1 (11742802_a_at) / RFU TPSAB1 /// TPSB2 (11721975_s_at) / Fold change /veh TPSAB1 /// TPSB2 (11721975_s_at) / RFU GSTM3 (11746129_a_at) / Fold change /veh GSTM3 (11746129_a_at) / RFU IL23R (11737362_x_at) / Fold change /veh IL23R (11737362_x_at) / RFU TMEM51 (11727254_a_at) / Fold change /veh TMEM51 (11727254_a_at) / RFU PIWIL2 (11732686_x_at) / Fold change /veh PIWIL2 (11732686_x_at) / RFU ORM1 (11744905_x_at) / Fold change /veh ORM1 (11744905_x_at) / RFU CCDC152 (11743942_at) / Fold change /veh CCDC152 (11743942_at) / RFU ECM1 (11717891_a_at) / Fold change /veh ECM1 (11717891_a_at) / RFU IL23R (11748794_a_at) / Fold change /veh IL23R (11748794_a_at) / RFU TNFAIP8L3 (11732012_x_at) / Fold change /veh TNFAIP8L3 (11732012_x_at) / RFU MBOAT4 (11741988_at) / Fold change /veh MBOAT4 (11741988_at) / RFU 11764193_at / Fold change /veh 11764193_at / RFU TMEM53 (11763286_at) / Fold change /veh TMEM53 (11763286_at) / RFU MAGEB2 (11727129_at) / Fold change /veh MAGEB2 (11727129_at) / RFU TMEM200A (11744735_a_at) / Fold change /veh TMEM200A (11744735_a_at) / RFU CCDC152 (11751479_a_at) / Fold change /veh CCDC152 (11751479_a_at) / RFU FAM211A (11726209_a_at) / Fold change /veh FAM211A (11726209_a_at) / RFU RGS16 (11746705_a_at) / Fold change /veh RGS16 (11746705_a_at) / RFU VCAN (11755009_s_at) / Fold change /veh VCAN (11755009_s_at) / RFU RHOB (11743442_s_at) / Fold change /veh RHOB (11743442_s_at) / RFU RGS16 (11720943_a_at) / Fold change /veh RGS16 (11720943_a_at) / RFU RGS16 (11720944_at) / Fold change /veh RGS16 (11720944_at) / RFU, VPS4B / Fold change vs veh, VPS4B / RFU, CREB1 / Fold change vs veh, CREB1 / RFU, DNAJC13 / Fold change vs veh, DNAJC13 / RFU, GNAQ / Fold change vs veh, GNAQ / RFU, CDK5R1 / Fold change vs veh, CDK5R1 / RFU, ZRANB3 / Fold change vs veh, ZRANB3 / RFU, CUL4A / Fold change vs veh, CUL4A / RFU, CCNY / Fold change vs veh, CCNY / RFU, UFL1 / Fold change vs veh, UFL1 / RFU, COG3 / Fold change vs veh, COG3 / RFU, DIAPH2 / Fold change vs veh, DIAPH2 / RFU, SKA2 / Fold change vs veh, SKA2 / RFU, AFF3 / Fold change vs veh, AFF3 / RFU, LMF1 / Fold change vs veh, LMF1 / RFU, IPO11 / Fold change vs veh, IPO11 / RFU, DFFB / Fold change vs veh, DFFB / RFU, FOXP1 / Fold change vs veh, FOXP1 / RFU, CARD8 / Fold change vs veh, CARD8 / RFU, STRN3 / Fold change vs veh, STRN3 / RFU, ADK / Fold change vs veh, ADK / RFU, RASSF2 / Fold change vs veh, RASSF2 / RFU, WIPF1 / Fold change vs veh, WIPF1 / RFU, LARP1B / Fold change vs veh, LARP1B / RFU, RASA1 / Fold change vs veh, RASA1 / RFU, RB1 / Fold change vs veh, RB1 / RFU, PPFIA1 / Fold change vs veh, PPFIA1 / RFU, MAT2A / Fold change vs veh, MAT2A / RFU, CCT5 / Fold change vs veh, CCT5 / RFU, WDR92 / Fold change vs veh, WDR92 / RFU, CUX1 / Fold change vs veh, CUX1 / RFU, TTC7A / Fold change vs veh, TTC7A / RFU, TMEM135 / Fold change vs veh, TMEM135 / RFU, DEPTOR / Fold change vs veh, DEPTOR / RFU, CPM / Fold change vs veh, CPM / RFU, DNAJB6 / Fold change vs veh, DNAJB6 / RFU, CACNA2D3 / Fold change vs veh, CACNA2D3 / RFU, DTX4 / Fold change vs veh, DTX4 / RFU, TFCP2 / Fold change vs veh, TFCP2 / RFU, GMCL1 /// GMCL1P1 / Fold change vs veh, GMCL1 /// GMCL1P1 / RFU, AEBP2 / Fold change vs veh, AEBP2 / RFU, SNHG1 /// SNORD22 /// SNORD25 /// SNORD26 /// SNORD27 /// SNORD28 /// SNORD29 /// SNORD31 / Fold change vs veh, SNHG1 /// SNORD22 /// SNORD25 /// SNORD26 /// SNORD27 /// SNORD28 /// SNORD29 /// SNORD31 / Fold change (Aza/veh), C12orf56 (ProbeSet 11735607_a_at) / Fold change (ACY-1035/veh), C12orf56 (ProbeSet 11735607_a_at) / Fold change (Aza/veh), FGFR1OP (ProbeSet 11751329_s_at) / Fold change (ACY-1035/veh), FGFR1OP (ProbeSet 11751329_s_at) / Fold change (Aza/veh), VPS36 (ProbeSet 11739960_a_at) / Fold change (ACY-1035/veh), VPS36 (ProbeSet 11739960_a_at) / RFU SYPL1 (11715823_x_at) / Fold change /veh SYPL1 (11715823_x_at) / RFU IGFBP7 (11715501_s_at) / Fold change /veh IGFBP7 (11715501_s_at) / RFU REEP3 (11722064_at) / Fold change /veh REEP3 (11722064_at) / RFU IGLL1 (11728026_x_at) / Fold change /veh IGLL1 (11728026_x_at): dose or concentration left out as unconfirmed", "details": "MV-4-11 cells, 48 hours"}
{"molecule": "Nc1ncn([C@@H]2O[C@H](CO)[C@@H](O)[C@H]2O)c(=O)n1", "note": "[azacitidine]", "values": [{"measurement": "RFU C10orf10 (11716522_x_at)", "result": 45.56, "unit": "RFU"}]}
